Assays:
[1] = target: T1, endogenous MFSD7C and SERCA2b (Mus musculus, UniProt Q91X85); experiment: Co-IP of endogenous MFSD7C and SERCA2b in bone marrow-derived macrophages; type: cell-based; settings: bone marrow-derived wild-type macrophages, heme treatment
T1 construct: Co-IP and immunoblotting analysis of endogenous MFSD7C with ATP5h, SERCA2b and HMOX1 in bone marrow-derived macrophages; endogenous in cells; host or cells: bone marrow-derived macrophages from C57BL/6 mice
Protocol: (§1) NTD was incubated with heme and run on Superdex 75 gel filtration column. The flow through was measured for absorbance at 230 nm (gray), 380 nm (blue), and 415 nm (green). Absorbance intensity was normalized to maximum value. […] Heme (100 μM) absorption was set to zero. […] Wildtype (WT) and mutant (Mut) peptide sequences are shown. […] Shown are representative data from five separate experiments. […] Shown are immunoblots of MFSD7C, ATP5h, SERCA2b, and HMOX1 on whole lysates or immunoblots of MFSD7C on anti-ATP5h, anti-SERCA2b and anti-HMOX1 immunoprecipitates. Representative data from one from three experiments are shown. […] Shown are representative data from three separate experiments. WCE: whole cell extract, Sup: supernatant, Mito: 10,000 g mitochondrial fraction. […] THP-1 cells were stained with MitoTracker (green), fixed and permeabilized, and then stained with rabbit polyclonal antibody specific for the C-terminus of MFSD7C, followed with Alexa Fluor® 594-labelled goat anti-rabbit antibody (red). Nuclei were labeled using DAPI (blue). […]
(§2) Differentiation of bone marrow-derived macrophage (BMDM). […] Cells were resuspended in DMEM media containing 10% FBS, 2 mM L-glutamine, 2 mM pyruvate, non-essential amino acids (100 μM each), 0.55 mM 2-mercaptoethanol, penicillin/streptomycin), passed through a 40 μm Falcon cell strainer (VWR) to remove large aggregates, and counted. […]

[2] = target: T2, interaction between HMOX1 and MFSD7C (Mus musculus, UniProt Q91X85); experiment: Co-IP of HA-tagged MFSD7C with FLAG-tagged HMOX1 in transfected 293FT cells; type: cell-based, murine; settings: 10 μM or 40 μM heme for one hour before cell lysis
T2 construct: expressed in transfected cells; host or cells: 293FT cells
T2 sequence (Q91X85 whole entry): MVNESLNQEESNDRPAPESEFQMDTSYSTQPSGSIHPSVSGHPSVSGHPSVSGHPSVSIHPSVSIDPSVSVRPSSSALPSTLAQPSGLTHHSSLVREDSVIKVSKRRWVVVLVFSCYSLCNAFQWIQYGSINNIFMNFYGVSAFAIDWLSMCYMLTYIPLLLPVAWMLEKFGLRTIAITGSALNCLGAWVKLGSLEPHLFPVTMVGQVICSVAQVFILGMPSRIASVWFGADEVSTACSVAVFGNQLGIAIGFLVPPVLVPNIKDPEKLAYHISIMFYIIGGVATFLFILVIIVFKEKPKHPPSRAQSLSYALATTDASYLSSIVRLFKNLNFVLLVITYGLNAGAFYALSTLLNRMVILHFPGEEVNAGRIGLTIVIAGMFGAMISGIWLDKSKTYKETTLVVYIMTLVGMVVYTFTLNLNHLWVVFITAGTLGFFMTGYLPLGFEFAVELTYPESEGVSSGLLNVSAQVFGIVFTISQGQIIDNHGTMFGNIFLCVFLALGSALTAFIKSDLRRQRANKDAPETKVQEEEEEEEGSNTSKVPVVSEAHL
T2 sequence (P14901 whole entry partner): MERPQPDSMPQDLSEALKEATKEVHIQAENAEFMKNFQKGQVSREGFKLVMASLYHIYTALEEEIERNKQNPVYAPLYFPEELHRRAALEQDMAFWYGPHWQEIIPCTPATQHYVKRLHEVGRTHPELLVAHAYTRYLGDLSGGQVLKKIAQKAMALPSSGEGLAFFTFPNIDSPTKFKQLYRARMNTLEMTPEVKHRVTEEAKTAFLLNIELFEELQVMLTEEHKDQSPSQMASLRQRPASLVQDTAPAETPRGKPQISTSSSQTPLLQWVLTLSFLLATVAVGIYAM
Protocol: Co-transfection and immunoprecipitation. For co-IP, HA-tagged MFSD7C was co-transfected with FLAG-tagged HMOX1 (Origene Catalog No. MR203944), CYC1, COX4I1, NDUFA4, ATP5h, ATP5c1 into 293FT cells using TransIT®-LT1 Transfection Reagent (Mirus). Thirty-six hours after transfection, the cells were lysed using cold Lysis Buffer containing 20 mM Tris-HCl (pH 7.4), 150 mM NaCl, 0.1% NP-40, 10% glycerol, proteinase inhibitor (Sigma Catalog No. 4693132001), and phosphatase inhibitors (Sigma Catalog No. 4906845001). The clear supernatants from the lysate were incubated with M2-magnetic beads conjugated with anti-FLAG antibody (Sigma Catalog No. M8823) for 2 hours at 4° C. Then the beads were washed twice and eluted by the 3× FLAG peptides (Sigma Catalog No. F4799).
To determine the effect of heme on MFSD7C interactions with ETC components, HMOX1 or SERCA2b, 293FT cells were transiently transfected with HA-tagged murine MFSD7C and FLAG-tagged murine CYC1, NDUFA4, COX4i1, ATP5h, ATP5c1, HMOX1 or SERCA2b. 35 hrs later, co-transfected cells were incubated with DMSO (vehicle) or 10 μM or 40 μM of heme for one hour before lysis. Cell lysates were precipitated with anti-HA antibody, eluted with HA peptide, further precipitated with anti-FLAG antibody, eluted with FLAG peptide, and then subjected to Western blotting with anti-HA and anti-FLAG antibodies. […]

[3] = target: T3, endogenous MFSD7C and HMOX1 (Mus musculus, UniProt Q91X85); experiment: Co-IP of endogenous MFSD7C and HMOX1 in bone marrow-derived macrophages; type: cell-based; settings: heme treatment
T3 construct: Co-IP and immunoblotting analysis of endogenous MFSD7C with ATP5h, SERCA2b and HMOX1 in bone marrow-derived macrophages; endogenous in cells; host or cells: bone marrow-derived macrophages from Mfsd7c fl/fl C57BL/6 mice
T3 sequence (Q91X85 whole entry): as the sequence (Q91X85 whole entry) above
T3 sequence (P14901 whole entry partner): as the sequence (P14901 whole entry partner) above
Protocol: as §1, §2

[4] = target: T4, endogenous MFSD7C and ATP5h (Mus musculus, UniProt Q91X85); experiment: Co-IP of endogenous MFSD7C and ATP5h in bone marrow-derived macrophages; type: cell-based; settings: heme treatment
T4 construct: Co-IP and immunoblotting analysis of endogenous MFSD7C with ATP5h, SERCA2b and HMOX1 in bone marrow-derived macrophages; endogenous in cells; host or cells: bone marrow-derived macrophages from Mfsd7c fl/fl C57BL/6 mice
T4 sequence (Q91X85 whole entry): as the sequence (Q91X85 whole entry) above
Protocol: as §1, §2

SERCA2b = SERCA2b protein level by Western blotting, THP-1 cells; type: cell-based, human; settings: THP-1 cells following heme treatment vs parental THP-1 cells
Protocol: FIGS. 5A-5F show MFSD7C and heme regulate thermogenesis through SERCA2b in THP-1 cells. […] 30 hours later, MG132 was added into half of the cells and the other half was not treated. Another 35 hours later, some cells were treated with 40 μM heme for 1 hour before lysis. Cell lysates were immunoprecipitated with anti-FLAG antibody, and eluted, followed by anti-HA immunoprecipitation and elution. Total cell lysate and elute were subjected to Western blotting and probed with anti-SERCA2b or anti-MFSD7C antibodies. Shown are representative data from one of three experiments. […] 24 hrs later, cells were either not treated or treated with 10 μM MG132 for either 6 or 12 hours. The cells were lysed and subjected to FLAG pull-down and blotted with anti-MFSD7C, anti-SERCA2b and anti-ubiquitin antibodies. Shown are representative data from one of three experiments. […] Parental THP-1 cells were either not treated or treated with heme before lysis. Shown are representative data from one of four experiments. […] Shown are representative data from one of two experiments. […] Cells were washed and treated with 40 μM heme for one hour before flow cytometry. Representative FPT histograms from one of three experiments are shown. […] Shown are representative FPT histograms from one of three experiments.
Endogenous protein extraction. […]

T1 sequence (Q91X85 whole entry): as above

## C=CC1=C(C)c2cc3[n-]c(cc4[n-]c(cc5nc(cc1n2)C(C)=C5C=C)c(C)c4CCC(=O)O)c(CCC(=O)O)c3C.[Fe+2] [heme]
[1]
  co-IP of endogenous MFSD7C and SERCA2b: diminished
[2]
  interaction between HMOX1 and MFSD7C (co-IP): enhanced
[3]
  interactions between endogenous MFSD7C and HMOX1 (co-IP): enhanced
[4]
  interactions between endogenous MFSD7C and ATP5h (co-IP): disrupted
SERCA2b
  SERCA2b level: significantly higher

Reference: US20230313199A1, “TARGET FOR MODULATING BODY MASS” (Massachusetts Institute of Technology, priority 2020, published 2023)
